{"source": "ChEMBL document CHEMBL1139443", "about": "“Antitumor agents. Part 230: C4'-esters of GL-331 as cytotoxic agents and DNA topoisomerase II inhibitors” (Bioorg Med Chem Lett, 2004)", "key": {"[1]": {"tested_on": "KB", "assay": "Compound was evaluated for cytotoxicity against KB-7d cells at 10 uM concentration", "type": "functional", "conditions": "Homo sapiens"}, "[2]": {"tested_on": "KB", "assay": "Compound was evaluated for cytotoxicity against KB cells at 10 uM concentration", "type": "functional", "conditions": "Homo sapiens"}, "[3]": {"assay": "Lethal dose against KB-7d cells when treated for 30 min", "type": "toxicity, cell-based", "conditions": "human, read-out: LD50"}, "[4]": {"tested_on": "KB", "assay": "Effective dose required for inhibition of KB-7d cell replication after 3 days of continuous treatment", "type": "functional", "conditions": "Homo sapiens, 72 h, read-out: ED50 (the source's name)"}, "[5]": {"assay": "Lethal dose against KB cells when treated for 30 min", "type": "toxicity, cell-based", "conditions": "human, read-out: LD50"}, "[6]": {"tested_on": "KB", "assay": "Lethal dose against KB-7d cells when treated for 30 min; NMD = not markedly different from control.", "type": "toxicity, cell-based", "conditions": "human, 0.5 h"}, "[7]": {"tested_on": "KB", "assay": "Compound was evaluated for cytotoxicity against KB-7d cells at 10 uM concentration; NMD = not markedly different from control.", "type": "functional, cell-based", "conditions": "Homo sapiens"}}, "data": [{"compound": "COc1cc([C@@H]2c3cc4c(cc3[C@@H](Nc3ccc([N+](=O)[O-])cc3)[C@H]3COC(=O)[C@H]23)OCO4)cc(OC)c1OC(=O)CCl", "values": [{"measurement": "cytotoxicity at 10 µM", "setting": "[1]", "value": 46, "unit": "%"}, {"measurement": "cytotoxicity at 10 µM", "setting": "[2]", "value": 43, "unit": "%"}, {"measurement": "CC50 at 0.5 h", "setting": "[3]", "value": "> 10", "unit": "µM"}, {"measurement": "EC50", "setting": "[4]", "value": 2300, "unit": "nM"}, {"measurement": "CC50 at 0.5 h", "setting": "[5]", "value": "> 10", "unit": "µM"}]}, {"compound": "COc1cc([C@@H]2c3cc4c(cc3[C@@H](Nc3ccc([N+](=O)[O-])cc3)[C@H]3COC(=O)[C@H]23)OCO4)cc(OC)c1OC(C)=O", "values": [{"measurement": "cytotoxicity at 10 µM", "setting": "[1]", "value": 60, "unit": "%"}, {"measurement": "cytotoxicity at 10 µM", "setting": "[2]", "value": 28, "unit": "%"}, {"measurement": "CC50 at 0.5 h", "setting": "[3]", "value": "< 10", "unit": "µM"}, {"measurement": "EC50", "setting": "[4]", "value": 2900, "unit": "nM"}, {"measurement": "CC50 at 0.5 h", "setting": "[5]", "value": "> 20", "unit": "µM"}]}, {"compound": "COc1cc([C@@H]2c3cc4c(cc3[C@@H](Nc3ccc([N+](=O)[O-])cc3)[C@H]3COC(=O)[C@H]23)OCO4)cc(OC)c1OC(=O)C(F)(F)F", "values": [{"measurement": "cytotoxicity at 10 µM", "setting": "[1]", "value": 90, "unit": "%"}, {"measurement": "cytotoxicity at 10 µM", "setting": "[2]", "value": 62, "unit": "%"}, {"measurement": "CC50 at 0.5 h", "setting": "[3]", "value": "< 10", "unit": "µM"}, {"measurement": "EC50", "setting": "[4]", "value": 1500, "unit": "nM"}, {"measurement": "CC50 at 0.5 h", "setting": "[5]", "value": "< 10", "unit": "µM"}]}, {"compound": "COc1cc([C@@H]2c3cc4c(cc3[C@@H](Nc3ccc([N+](=O)[O-])cc3)[C@H]3COC(=O)[C@H]23)OCO4)cc(OC)c1O", "values": [{"measurement": "cytotoxicity at 10 µM", "setting": "[1]", "value": 94, "unit": "%"}, {"measurement": "cytotoxicity at 10 µM", "setting": "[2]", "value": 66, "unit": "%"}, {"measurement": "CC50 at 0.5 h", "setting": "[3]", "value": "< 10", "unit": "µM"}, {"measurement": "EC50", "setting": "[4]", "value": 1500, "unit": "nM"}, {"measurement": "CC50 at 0.5 h", "setting": "[5]", "value": "< 10", "unit": "µM"}]}, {"compound": "COc1cc([C@@H]2c3cc4c(cc3[C@@H](O[C@@H]3O[C@@H]5CO[C@@H](C)O[C@H]5[C@H](O)[C@H]3O)[C@H]3COC(=O)[C@H]23)OCO4)cc(OC)c1O", "note": "[ETOPOSIDE]", "values": [{"measurement": "LD50", "setting": "[6]", "value": "Not Markedly Different"}, {"measurement": "cytotoxicity at 10 µM", "setting": "[2]", "value": 52, "unit": "%"}, {"measurement": "EC50", "setting": "[4]", "value": 11000, "unit": "nM"}, {"measurement": "CC50 at 0.5 h", "setting": "[5]", "value": 50, "unit": "µM"}, {"measurement": "Cytotoxicity", "setting": "[7]", "value": "Not Markedly Different"}]}]}
